# Measured values published in patent publication US8926966B1 (Regents of the University of California, priority 1990, dated 2015).
# System: IDDM associated autoantibodies in sera
# Experiment: ELISA of sera on plate-bound human GAD65 peptides
# Type: binding
# Conditions: for number of IDDM (at risk, pre-IDDM, at onset) patients positive (X) for the peptide (unlabelled sum line): IDDM sera of Table 11
# Experimental: Patient sera and most control sera were those used in a previous study (Kaufman, et al., J. Clin. Investigation, supra) All samples were coded and tested in a blind manner. Peptides were synthesized using an automatic instrument (Applied Biosystems, Foster City, Calif.) and standard conditions. Peptides were dissolved in 60 mM sodium bicarbonate buffer (pH 9.6) at 20 ug/ml and 100 ul of each was added to duplicated wells of a 96 well Nunc-Immuno Plate. Peptides were allowed to bind at 4° C. overnight. The plates were then washed three times with PBS+0.1% Tween 20 (wash buffer), after which the plates were pre-absorbed with 3% BSA in sodium bicarbonate buffer for 0.5 hours at 37° C., or at room temperature overnight. The plates were then washed 5 times with the above wash buffer. 100 ul of serum at a 1/300 dilution in PBS+0.1% Tween 20 and 1% BSA was added to each well and antibodies were allowed to bind for 1 hour at 37° C. The plates were washed 5 times with wash buffer. 100 ul of a 1/600 dilution of HRP-goat anti-human IgG (BRL, Gaithersberg, Md.) was added to each well and allowed to bind for 1 hour at 37° C. The plates were then washed 7 times and 100 ul of substrate buffer was added to each well for 30 minutes at room temperature. The color development was measured at 410 nm using an ELISA plate reader (ICN, Biomedicals, Costa Mesa, Calif.). Positive sera were defined as: OD410 of the sample/negative control ≧3.0.
# [1] = IDDM At Risk serum 052, 1/300 dilution
# [2] = IDDM At Onset serum 048, 1/300 dilution
# [3] = IDDM At Onset serum 291, 1/300 dilution
# [4] = IDDM At Onset serum 705, 1/300 dilution
# [5] = IDDM At Onset serum S.H., 1/300 dilution
# [6] = IDDM At Risk serum 356, 1/300 dilution
# [7] = Pre-IDDM serum 723, 1/300 dilution
# [8] = Pre-IDDM serum J.A., 1/300 dilution
# [9] = Pre-IDDM serum J.B. (2), 1/300 dilution
# [10] = Pre-IDDM serum P.T. (1), 1/300 dilution
# [11] = Pre-IDDM serum P.T. (2), 1/300 dilution
# [12] = Pre-IDDM serum R.S. (2), 1/300 dilution
# [13] = control serum S.M., 1/300 dilution
# [14] = IDDM At Risk serum L.I., 1/300 dilution
# [15] = control serum 4380, 1/300 dilution
# [16] = control serum 5620, 1/300 dilution
sequence,measurement,setting,value
EYVTLKKMREIIGWPGGSGD [Peptide 15],immunoreactivity of serum with GAD65 peptide,[1],b (b = borderline response (00/background ?2.5-2.9).)
DERGKMIPSDLERRILEAKQ [Peptide 21],controls whose sera recognized the peptide,13 control sera,none
same,immunoreactivity of serum with GAD65 peptide,[2],X (X = positive for immunoreactivity as defined by 00/background^3.0)
same,immunoreactivity of serum with GAD65 peptide,[3],X (X = positive for immunoreactivity as defined by 00/background^3.0)
same,immunoreactivity of serum with GAD65 peptide,[4],X (X = positive for immunoreactivity as defined by 00/background^3.0)
same,immunoreactivity of serum with GAD65 peptide,[5],X (X = positive for immunoreactivity as defined by 00/background^3.0)
same,immunoreactivity of serum with GAD65 peptide,[6],X (X = positive for immunoreactivity as defined by 00/background^3.0)
same,"number of IDDM (at risk, pre-IDDM, at onset) patients positive (X) for the peptide (unlabelled sum line)",,7
same,immunoreactivity of serum with GAD65 peptide,[7],X (X = positive for immunoreactivity as defined by 00/background^3.0)
same,immunoreactivity of serum with GAD65 peptide,[8],X (X = positive for immunoreactivity as defined by 00/background^3.0)
same,immunoreactivity of serum with GAD65 peptide,[9],b (b = borderline response (00/background ?2.5-2.9).)
same,immunoreactivity of serum with GAD65 peptide,[10],X (X = positive for immunoreactivity as defined by 00/background^3.0)
same,immunoreactivity of serum with GAD65 peptide,[11],X (X = positive for immunoreactivity as defined by 00/background^3.0)
same,immunoreactivity of serum with GAD65 peptide,[12],b (b = borderline response (00/background ?2.5-2.9).)
same,immunoreactivity of serum with GAD65 peptide,[13],b (b = borderline response (00/background ?2.5-2.9).)
same,patients whose sera recognized the peptide,patients previously shown to be 64K positive,6/8
DICKKYKIWMHVDAAWGGGLLMS [Peptide 24],immunoreactivity by both control and patient sera,,often positive
same,immunoreactivity of serum with GAD65 peptide,[2],X (X = positive for immunoreactivity as defined by 00/background^3.0)
same,immunoreactivity of serum with GAD65 peptide,[3],X (X = positive for immunoreactivity as defined by 00/background^3.0)
same,immunoreactivity of serum with GAD65 peptide,[4],X (X = positive for immunoreactivity as defined by 00/background^3.0)
same,immunoreactivity of serum with GAD65 peptide,[5],X (X = positive for immunoreactivity as defined by 00/background^3.0)
same,immunoreactivity of serum with GAD65 peptide,[1],X (X = positive for immunoreactivity as defined by 00/background^3.0)
same,immunoreactivity of serum with GAD65 peptide,[6],X (X = positive for immunoreactivity as defined by 00/background^3.0)
same,immunoreactivity of serum with GAD65 peptide,"IDDM At Risk serum 825, 1/300 dilution",X (X = positive for immunoreactivity as defined by 00/background^3.0)
same,immunoreactivity of serum with GAD65 peptide,[14],X (X = positive for immunoreactivity as defined by 00/background^3.0)
same,immunoreactivity of serum with GAD65 peptide,[7],X (X = positive for immunoreactivity as defined by 00/background^3.0)
same,immunoreactivity of serum with GAD65 peptide,"Pre-IDDM serum B.Y. (1), 1/300 dilution",X (X = positive for immunoreactivity as defined by 00/background^3.0)
same,immunoreactivity of serum with GAD65 peptide,"Pre-IDDM serum B.Y. (2), 1/300 dilution",X (X = positive for immunoreactivity as defined by 00/background^3.0)
same,immunoreactivity of serum with GAD65 peptide,[8],X (X = positive for immunoreactivity as defined by 00/background^3.0)
same,immunoreactivity of serum with GAD65 peptide,"Pre-IDDM serum J.B. (1), 1/300 dilution",X (X = positive for immunoreactivity as defined by 00/background^3.0)
same,immunoreactivity of serum with GAD65 peptide,[9],X (X = positive for immunoreactivity as defined by 00/background^3.0)
same,immunoreactivity of serum with GAD65 peptide,[10],X (X = positive for immunoreactivity as defined by 00/background^3.0)
same,immunoreactivity of serum with GAD65 peptide,[11],X (X = positive for immunoreactivity as defined by 00/background^3.0)
same,immunoreactivity of serum with GAD65 peptide,"Pre-IDDM serum R.S. (1), 1/300 dilution",X (X = positive for immunoreactivity as defined by 00/background^3.0)
same,immunoreactivity of serum with GAD65 peptide,[12],X (X = positive for immunoreactivity as defined by 00/background^3.0)
same,immunoreactivity of serum with GAD65 peptide,"control serum 1688, 1/300 dilution",X (X = positive for immunoreactivity as defined by 00/background^3.0)
same,immunoreactivity of serum with GAD65 peptide,[15],X (X = positive for immunoreactivity as defined by 00/background^3.0)
same,immunoreactivity of serum with GAD65 peptide,[16],X (X = positive for immunoreactivity as defined by 00/background^3.0)
same,immunoreactivity of serum with GAD65 peptide,"control serum 5748, 1/300 dilution",X (X = positive for immunoreactivity as defined by 00/background^3.0)
same,immunoreactivity of serum with GAD65 peptide,"control serum A.P., 1/300 dilution",X (X = positive for immunoreactivity as defined by 00/background^3.0)
same,immunoreactivity of serum with GAD65 peptide,"control serum FA2, 1/300 dilution",X (X = positive for immunoreactivity as defined by 00/background^3.0)
same,immunoreactivity of serum with GAD65 peptide,"control serum FA8, 1/300 dilution",X (X = positive for immunoreactivity as defined by 00/background^3.0)
same,immunoreactivity of serum with GAD65 peptide,"control serum FA9, 1/300 dilution",X (X = positive for immunoreactivity as defined by 00/background^3.0)
same,immunoreactivity of serum with GAD65 peptide,"control serum FA11, 1/300 dilution",X (X = positive for immunoreactivity as defined by 00/background^3.0)
same,immunoreactivity of serum with GAD65 peptide,"control serum FA12, 1/300 dilution",X (X = positive for immunoreactivity as defined by 00/background^3.0)
same,immunoreactivity of serum with GAD65 peptide,"control serum H.B., 1/300 dilution",X (X = positive for immunoreactivity as defined by 00/background^3.0)
same,immunoreactivity of serum with GAD65 peptide,"control serum P.T., 1/300 dilution",X (X = positive for immunoreactivity as defined by 00/background^3.0)
same,immunoreactivity of serum with GAD65 peptide,[13],X (X = positive for immunoreactivity as defined by 00/background^3.0)
AFTSEHSHFSLKKGAAALGI [Peptide 19],immunoreactivity of serum with GAD65 peptide,[1],X (X = positive for immunoreactivity as defined by 00/background^3.0)
same,"number of IDDM (at risk, pre-IDDM, at onset) patients positive (X) for the peptide (unlabelled sum line)",,1
EYGTTTMVSYQPLGDKVNFFR [Peptide 36],immunoreactivity of serum with GAD65 peptide,[4],X (X = positive for immunoreactivity as defined by 00/background^3.0)
same,"number of IDDM (at risk, pre-IDDM, at onset) patients positive (X) for the peptide (unlabelled sum line)",,1
ERANSVTWNPHKMMGVPLQC [Peptide 26],immunoreactivity of serum with GAD65 peptide,[3],X (X = positive for immunoreactivity as defined by 00/background^3.0)
same,"number of IDDM (at risk, pre-IDDM, at onset) patients positive (X) for the peptide (unlabelled sum line)",,1
same,immunoreactivity of serum with GAD65 peptide,[16],b (b = borderline response (00/background ?2.5-2.9).)
GSGDSENPGTARAWCQVAQKFTG [Peptide 2],immunoreactivity of serum with GAD65 peptide,[5],b (b = borderline response (00/background ?2.5-2.9).)
same,immunoreactivity of serum with GAD65 peptide,[1],b (b = borderline response (00/background ?2.5-2.9).)
KHYDLSYDTGDKALQCGRHV [Peptide 29],immunoreactivity of serum with GAD65 peptide,[2],X (X = positive for immunoreactivity as defined by 00/background^3.0)
same,immunoreactivity of serum with GAD65 peptide,[4],X (X = positive for immunoreactivity as defined by 00/background^3.0)
same,immunoreactivity of serum with GAD65 peptide,[1],X (X = positive for immunoreactivity as defined by 00/background^3.0)
same,"number of IDDM (at risk, pre-IDDM, at onset) patients positive (X) for the peptide (unlabelled sum line)",,4
same,immunoreactivity of serum with GAD65 peptide,[9],b (b = borderline response (00/background ?2.5-2.9).)
same,immunoreactivity of serum with GAD65 peptide,[10],X (X = positive for immunoreactivity as defined by 00/background^3.0)
same,immunoreactivity of serum with GAD65 peptide,[11],X (X = positive for immunoreactivity as defined by 00/background^3.0)
DMVGLAADWLTSTANTNMFT [Peptide 13],immunoreactivity of serum with GAD65 peptide,[1],b (b = borderline response (00/background ?2.5-2.9).)
EYLYNIIKNREGYEMVFDGK [Peptide 32],immunoreactivity of serum with GAD65 peptide,[2],X (X = positive for immunoreactivity as defined by 00/background^3.0)
same,immunoreactivity of serum with GAD65 peptide,[3],b (b = borderline response (00/background ?2.5-2.9).)
same,immunoreactivity of serum with GAD65 peptide,[14],b (b = borderline response (00/background ?2.5-2.9).)
same,"number of IDDM (at risk, pre-IDDM, at onset) patients positive (X) for the peptide (unlabelled sum line)",,1
same,immunoreactivity of serum with GAD65 peptide,[11],b (b = borderline response (00/background ?2.5-2.9).)
same,immunoreactivity of serum with GAD65 peptide,[15],b (b = borderline response (00/background ?2.5-2.9).)
